The numbers were not newly measured in patent US20040208936A1, “Novel compositions” (priority 2002, published 2004), which cites them from elsewhere.

As a reminder, the MIC is the lowest concentration that inhibits growth of the organism.

In brackets after ≈: the same amount, converted by molar mass.

In the series the test system is S pneumoniae. The settings on record: some 10% of pneumococci.

In the case of `CC1(C)S[C@@H]2[C@H](NC(=O)[C@H](N)c3ccc(O)cc3)C(=O)N2[C@H]1C(=O)O` [Amoxicillin], the MIC is 2 µg/mL (≈ 5.47 µM).
